Reference: patent US7767704B2, “Antiviral 4-aminocarbonylamino-substituted imidazole compounds” (AiCuris GmbH & Co. KG, priority 2004, dated 2010)

Legend:
[1] = Cytostatic effect on NHDF cells in the anti-HCMV cytopathogenicity test; type: cell-based; conditions: NHDF cells (human prepuce fibroblasts), 6 days incubation, visual assessment, concentration at which no visible cytostatic effects are evident
Experimental: (§1) Anti-HCMV (Anti-human Cytomegalovirus) Cytopathogenicity Tests
(§2) The test compounds are employed as 50 millimolar (mM) solutions in dimethyl sulphoxide (DMSO). Ganciclovir, foscarnet and cidofovir are used as reference compounds. After addition of in each case 2 μl of the 50, 5, 0.5 and 0.05 mM DMSO stock solutions to 98 μl portions of cell culture medium in row 2 A-H for duplicate determinations, 1:2 dilutions are carried out with 50 μl portions of medium up to row 11 of the 96-well plate. The wells in rows 1 and 12 each contain 50 μl of medium. 150 μl of a suspension of 1×10^4 cells (human prepuce fibroblasts [NHDF]) are pipetted into each of the wells (row 1=cell control) and, in rows 2-12, a mixture of HCMV-infected and uninfected NHDF cells (M.O.I.=0.001-0.002), i.e. 1-2 infected cells per 1000 uninfected cells. Row 12 (without substance) serves as virus control. The final test concentrations are 250-0.0005 μM. The plates are incubated at 37° C./5% CO2 for 6 days, i.e. until all the cells are infected in the virus controls (100% cytopathogenic effect [CPE]). The wells are then fixed and stained by adding a mixture of formalin and Giemsa's dye (30 minutes), washed with double-distilled water and dried in a drying oven at 50° C. The plates are then assessed visually using an overhead microscope (plaque multiplier from Technomara).
(§3) The following data can be acquired from the test plates: • CC50 (NHDF)=substance concentration in μM at which no visible cytostatic effects on the cells are evident by comparison with the untreated cell control; • EC50 (HCMV)=substance concentration in […] which inhibits the CPE (cytopathic effect) by 50% compared with the untreated virus control; • SI (selectivity index)=CC50 (NHDF)/EC50 (HCMV).

HCMV = experiment: Anti-HCMV (anti-human cytomegalovirus) cytopathogenicity test; type: cell-based; conditions: Human betaherpesvirus 5, 144 h; HCMV-infected NHDF cells, M.O.I. 0.001-0.002, 6 days; inhibition of CPE by 50% vs untreated virus control
Experimental: as §1, §2, §3

Row | Compound | CC50 at 6 days [1] [nM] | EC50 (HCMV) [nM]
1 | COc1ccc(C(C)NC(=O)c2nc(NC(=O)Nc3ccc(C)c(F)c3)cn2C)cn1 (stereo not shown) [Example 2, 4-({[(3-Fluoro-4-methylphenyl)amino]carbonyl}amino)-N-[1-(6-methoxypyridin-3-yl)ethyl]-1-methyl-1H-imidazole-2-carboxamide] | 94000 | 0.5
2 | Cc1cc(Cl)ccc1NC(=O)Nc1cn(CC2CC2)c(C(=O)NCCCn2cccn2)n1 [Example 11] | 25000 | 1
3 | O=C(Nc1ccc(OC(F)(F)F)cc1)Nc1cn(Cc2ccc(C(F)(F)F)cc2)c(C(=O)NCCO)n1 [Example 124, N-(2-Hydroxyethyl)-4-[({[4-(trifluoromethoxy)phenyl]amino}carbonyl)amino]-1-[4-(trifluoromethyl)benzyl]-1H-imidazole-2-carboxamide] | 9400 | 1.4
4 | COc1ccc(CNC(=O)c2nc(NC(=O)Nc3ccc(OC(F)(F)F)cc3)cn2CC2CC2)cc1 [Example 32] | 3130 | 1
5 | Cn1cc(NC(=O)Nc2ccc(OC(F)(F)F)cc2)nc1C(=O)NCCCC(F)(F)F [Example 152, 1-Methyl-N-(4,4,4-trifluorobutyl)-4-[({[4-(trifluoromethoxy)phenyl]amino}carbonyl)amino]-1H-imidazole-2-carboxamide] | 31000 | 1.9
6 | Cc1cc(Cl)ccc1NC(=O)Nc1cn(CC2CC2)c(C(=O)NCCCN2CCOCC2)n1 [Example 3, 4-({[(4-Chloro-2-methylphenyl)amino]carbonyl}amino)-1-(cyclopropylmethyl)-N-(3-morpholin-4-ylpropyl)-1H-imidazole-2-carboxamide] | 25000 | 3
7 | O=C(Nc1ccc(OC(F)(F)F)cc1)Nc1cn(Cc2ccc(C(F)(F)F)cc2)c(C(=O)NCCOC(=O)CN2CCOCC2)n1 [Example 139] | 4700 | 2.8
8 | COCCOCCCNC(=O)c1nc(NC(=O)Nc2ccc(Cl)cc2C)cn1CC=C(C)C [Example 25] | 6250 | 1
